By IC50 is commonly meant the midpoint of a concentration-inhibition curve.

IC50 data for 87 molecules are collected here from PubChem BioAssay AID1645864 (Buhrlage Lab, Dana-Farber Cancer Institute and Novartis …, 2021).

The source made the active and inactive calls.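 The calls were made as follows: active = maximal inhibition of USP17 at or above 30% in the confirmation dose-response, a value not among the printed readouts; inactive = the rest.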 Bounds are passed on as bounds.

The target of this assay is Ubiquitin carboxyl-terminal hydrolase 17-like protein 5 (Homo sapiens) (UniProt A8MUK1). Kind of assay: ubiquitin-specific protease 17 inhibitors, concentration series, biochemical, verification of primary actives (AID 1645864). As to conditions: purified USP17, ubiquitin-rhodamine cleavage fluorescence, 3 h.
Chain of Ubiquitin carboxyl-terminal hydrolase 17-like protein 5 (Homo sapiens) (A8MUK1 whole entry, looked up): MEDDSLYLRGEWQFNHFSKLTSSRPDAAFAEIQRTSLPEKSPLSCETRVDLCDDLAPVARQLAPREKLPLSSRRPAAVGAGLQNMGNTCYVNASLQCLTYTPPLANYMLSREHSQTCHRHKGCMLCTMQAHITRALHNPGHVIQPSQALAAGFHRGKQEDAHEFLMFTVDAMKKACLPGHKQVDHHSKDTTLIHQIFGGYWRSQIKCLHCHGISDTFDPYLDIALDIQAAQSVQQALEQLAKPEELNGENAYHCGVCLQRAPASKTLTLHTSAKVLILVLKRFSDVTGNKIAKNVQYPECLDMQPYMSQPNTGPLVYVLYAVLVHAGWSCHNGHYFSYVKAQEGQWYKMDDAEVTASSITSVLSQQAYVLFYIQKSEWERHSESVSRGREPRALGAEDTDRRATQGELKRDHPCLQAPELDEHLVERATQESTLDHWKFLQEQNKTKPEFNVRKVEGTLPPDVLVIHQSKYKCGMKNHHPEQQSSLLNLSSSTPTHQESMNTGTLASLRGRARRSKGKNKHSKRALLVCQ
With `COc1cccc(N2CCN(C(=O)C3CCN(c4nc(NC(C)=O)ns4)CC3)CC2)c1`, the IC50 is 29.2 µM.

As for `O=c1c2cnc(N3CCCCC3)nc2ccn1CCc1ccccc1`, the IC50 is 1.87 µM.

On to `CCOC(=O)c1cccc(NC(=O)Nc2cccn3nc(C)nc23)c1`, for which the IC50 is > 50 µM (inactive).

Consider `O=C(NC(Cc1ccccc1)c1nc2ccccc2[nH]1)C1CC1` (configuration not stated), for which the IC50 was 49.7 µM.

Regarding `Cc1ccccc1Cn1ccc2ccn(Cc3cccnc3)c2c1=O`, the IC50 was > 50 µM (inactive).

With `O=C(NC1CCCC1)c1cccc(-c2ccc(N3CCCC3)nc2)c1`, the IC50 was 4.53 µM.

For `COc1ccc(OC)c(-c2cc(C(=O)Nc3c(C)nn(Cc4ccccc4)c3C)no2)c1`, the IC50 was > 50 µM (inactive).

Turning to `Cc1cccc(CNC(=O)c2ccc(-c3nnc(-c4cccc(C)c4)o3)cc2)c1`, the IC50 is 5.03 µM.

Take `O=C(CCCCn1c(=O)c2ccccc2n(CC(=O)Nc2ccc(F)c(Cl)c2)c1=O)NCc1ccco1`: the IC50 is > 50 µM (inactive).

With `CCC(CC)n1[nH]c(=O)c2c1NC(=O)CSC2c1ccc2c(c1)OCO2` (configuration not stated), the IC50 is 18.5 µM.

On to `CC1CCCCN1c1nc(F)c2c(c1F)S(=O)(=O)CCN2Cc1ccccc1` (configuration not stated), for which the IC50 is > 50 µM (inactive).

For `Cc1cccc(COc2ccc(C3SCC(=O)Nc4n[nH]c(C)c43)cc2)c1` (configuration not stated), the IC50 was 20.6 µM.

Consider `CN1C(=O)COc2ccc(NC(=O)c3cc(-c4ccccc4)on3)cc21`, for which the IC50 is 9.45 µM.

As to `Cc1ccc(NC(=O)c2nnn(-c3ccccc3Br)c2C)cc1C`, the IC50 is > 50 µM (inactive).

For the molecule `Clc1cccc(N2CCN(c3ncnc4nc[nH]c34)CC2)c1`, the IC50 is > 50 µM (inactive).

As to `O=C(NC1CCN(Cc2ccccc2)CC1)c1[nH]nc2c1CCc1ccccc1-2`, the IC50 was > 50 µM (inactive).

`COc1cccc(-n2nnc(C(=O)Nc3ccc(C)c(C)c3)c2C)c1`: the IC50 was > 50 µM (inactive).

In the case of `Cc1c(-c2nnc(-c3ccccn3)o2)nnn1-c1cccc(Cl)c1`, the IC50 was 35.1 µM.

Turning to `Fc1ccc(Cn2ccc(-c3cnc(-c4ccccc4)s3)n2)cc1`, the IC50 is > 50 µM (inactive).

Regarding `Cc1cccc(C)c1NC(=O)Cn1c(=O)n(CCCCC(=O)NCc2ccc3c(c2)OCO3)c(=O)c2ccccc21`, the half-inhibitory concentration (IC50) was 2.23 µM.

Take `CCCc1nc2sc3c(NCCc4ccc(OC)c(OC)c4)ncnc3c2c2c1CCC2`: the IC50 is > 50 µM (inactive).

On to `Cc1ccc2c(c1)[C@]1(C(=O)N2)[C@@H](C(=O)c2ccccc2)[C@]2(C(=O)Nc3ccccc32)[C@@H]2CCCN21`, for which the IC50 is 32 µM.

As to `COc1cc(-c2cc(C(=O)Nc3cc(C)[nH]n3)c3ccccc3n2)cc(OC)c1OC`, the IC50 was 42.9 µM.

Consider `Cc1nn(Cc2ccccc2)c(Cl)c1C(=O)NC1CCCc2ccccc21` (configuration not stated), for which the IC50 was > 50 µM (inactive).

In the case of `Cc1nc2c3ccccc3nc(NCc3ccc4c(c3)OCO4)n2n1`, the IC50 is 33.8 µM.

As for `O=C(CSc1nc2ccccc2n1S(=O)(=O)c1ccc(Br)cc1)Nc1ccc([N+](=O)[O-])cc1Cl`, the IC50 was > 50 µM (inactive).

As for `N#Cc1cccc(NC(=O)Cn2cccc(-c3nc(-c4ccccc4)no3)c2=O)c1`, the IC50 was > 50 µM (inactive).

Consider `Cn1c(=O)[nH]c2nncnc2c1=O`, for which the IC50 is 7.23 µM.

Take `O=C(CN1C(=O)C2CCCC2=Nc2ccccc21)Nc1ccc(F)cc1F` (configuration not stated): the IC50 was 32.2 µM.

On to `COc1cccc(NC(=O)Cc2sc(Nc3cc(C)cc(C)c3)nc2O)c1`, for which the IC50 is 17.8 µM.

Regarding `O=c1c2ccccc2c(-c2nc(-c3ccncc3)no2)cn1-c1ccccc1`, the IC50 is 2.75 µM.

For `O=C1CC(O)C(C2=CC(=O)c3c(O)cccc3C2=O)O1` (configuration not stated), the IC50 is 0.233 µM.

With `O=C(COc1nc2ccccc2nc1N1CCOCC1)NC(c1ccccc1)c1ccccc1`, the IC50 was > 50 µM (inactive).

`Cc1nn(-c2nc3ccccc3[nH]2)c2c1C(c1cccs1)CC(=O)N2` (configuration not stated): the IC50 is > 50 µM (inactive).

For `COc1ccccc1-c1nc(-c2nnn(Cc3ccc(C)cc3)c2C)no1`, the IC50 was > 50 µM (inactive).

With `CCC(=O)Nc1nc2cc(NC(=O)Nc3cc(C)cc(C)c3)ccc2s1`, the IC50 was 3.21 µM.

As for `O=C(NC1CCCCC1)c1cc2c(cn1)[nH]c1ccccc12`, the IC50 was > 50 µM (inactive).

With `Cc1cccc(NC(=O)CSc2ccc(-n3cnc(-c4ccccc4)c3)nn2)c1`, the IC50 was 6.17 µM.

Consider `Cc1ccc(NC(=O)c2ccc3nn(CC(=O)Nc4ccc(F)cc4F)c(=O)n3c2)cc1`, for which the IC50 is 2.79 µM.

Regarding `COc1ccc(/C=C/C(=O)Nc2cccc(S(=O)(=O)Nc3ccccc3Cl)c2)c(OC)c1`, the IC50 was 9.3 µM.

`COc1ccc(/C=C/C(=O)N2CCc3ccccc32)cc1S(=O)(=O)N1CCOCC1`: the IC50 is > 50 µM (inactive).

In the case of `C=C1CCC2[C@](C)(CCC[C@]2(C)C(=O)OC)[C@H]1CCc1ccoc1CNC(C)C` (some centres not stated), the IC50 is > 50 µM (inactive).

As for `CC1(C)Cc2c(c(-c3ccco3)nc3sc4c(SCCCc5ccccc5)ncnc4c23)CO1`, the IC50 is 34.4 µM.

For `Cc1c(Cl)cccc1NC(=O)Cn1ccc2ccccc2c1=O`, the IC50 was 2.23 µM.

Turning to `O=C(/C=C/c1ccc(F)cc1)N1CCC(Cc2ccccc2)CC1`, the IC50 was 41.8 µM.

`CCCN1CCN(C(=O)c2cc(NC(=O)C3CCC3)cc3nc(C)ccc23)CC1`: the IC50 is > 50 µM (inactive).

Take `N#Cc1c(-c2ccccc2)ccn(Cc2cccc(C(F)(F)F)c2)c1=O`: the IC50 is 33.8 µM.

Turning to `O=C(Nc1ccccc1)c1cn2c3c(cccc3c1=O)CC2`, the IC50 is 26.9 µM.

Take `COc1ccc(C)cc1NC(=O)C1CC(=O)Nc2nc3ccccc3n21` (configuration not stated): the IC50 is 33.9 µM.

With `CS(=O)(=O)N1CCCc2cc(C(=O)Nc3ccc(Oc4ccccc4)cc3)ccc21`, the IC50 is > 50 µM (inactive).

Turning to `Cc1ccc2[nH]c(=O)c(-c3nc4ccc(C)cn4c3NCc3ccc(F)cc3)cc2c1`, the IC50 was 1.98 µM.

As to `CCOc1ccc(-n2c(C)cc(/C=C(\C#N)c3nc4ccccc4[nH]3)c2C)cc1`, the IC50 is > 50 µM (inactive).

As for `CSc1nc(SCC(N)=O)c2c3c(sc2n1)COC(C)(C)C3`, the IC50 was 36.9 µM.

Consider `O=C(/C=C/c1cnc2ccccc2c1)NCc1ccccc1`, for which the IC50 was 43.4 µM.

For the molecule `CN(C)C1CCN(C(=O)c2cc(-c3ccn(-c4ccccc4)n3)n3ccccc23)CC1`, the IC50 is > 50 µM (inactive).

`CS(=O)(=O)N1CCc2cc(C(=O)Nc3ccc(Cc4ccncc4)cc3)ccc21`: the IC50 is > 50 µM (inactive).

In the case of `O=C(COC(=O)c1ccc(CN2CCCC2=O)cc1)c1ccc2c(c1)OCCO2`, the IC50 is > 50 µM (inactive).

In the case of `COc1ccc(CCNC(=O)CCn2c(=O)c3ccccc3n(Cc3ccc(C)cc3)c2=O)cc1OC`, the IC50 was 28.6 µM.

For the molecule `O=C1N[C@@H](Cc2ccccc2)C(=O)N2[C@H]3Nc4ccccc4[C@@]3([C@]34C[C@H]5C(=O)N[C@@H](Cc6ccccc6)C(=O)N5[C@H]3Nc3ccccc34)C[C@@H]12`, the IC50 is 38.4 µM.

`O=C(Nc1ccc(Cl)cc1F)c1cc(-c2ccccn2)n[nH]1`: the IC50 was 0.323 µM.

`O=C(c1cc(-c2ccc(Cl)cc2)n[nH]1)N1CCN(C(=O)c2ccco2)CC1`: the IC50 is 32.2 µM.

With `CCCCN(C)C(=O)c1cc2c(=O)n3cccc(C)c3nc2n1Cc1ccccc1`, the IC50 was 39.8 µM.

For `Cc1ccc(S(=O)(=O)Nc2ccccc2SCCS(=O)(=O)c2ccc(Cl)cc2)cc1`, the IC50 is > 50 µM (inactive).

Turning to `Cc1ccc(NC(=O)c2ccc(Nc3nnc(C)c4ccccc34)cc2)cc1`, the IC50 is 38.1 µM.

Turning to `O=C(COC(=O)c1ccc2ncsc2c1)Nc1ccccc1F`, the IC50 is > 50 µM (inactive).

Regarding `CC1(C)Cc2nc3sc4c(=O)n(CC(=O)NCc5ccccc5)cnc4c3cc2CO1`, the IC50 was 44.9 µM.

For `Cc1[nH]nc(NC(=O)C2COc3ccccc3O2)c1-c1ccccc1` (configuration not stated), the IC50 was 34.7 µM.

As for `CCc1ccc2[nH]c(=O)c(CN(CCc3ccc(OC)c(OC)c3)C(=O)Nc3ccccc3)cc2c1`, the IC50 was > 50 µM (inactive).

On to `Cc1cc(C)n(-c2ccc(C(=O)NCc3ccc(F)cc3)cn2)n1`, for which the IC50 is 33.9 µM.

For the molecule `Cc1ccccc1C(=O)OCCN1C(=O)c2cccc3c(N4CCOCC4)ccc(c23)C1=O`, the IC50 is > 50 µM (inactive).

For `O=C(Nc1cccc2ccccc12)N1CCC(c2nc3c(nnn3Cc3ccc(F)cc3)c(=O)[nH]2)CC1`, the IC50 was 28.6 µM.

On to `Cc1ccc(C(=O)Nc2cc3c4c(c2)CC(=O)N4CCC3)cc1`, for which the IC50 was > 50 µM (inactive).

As for `CCOc1ccccc1NC(=O)Cn1c(-c2ccc3c(c2)OCO3)cn(-c2ccc(OC)cc2)c1=O`, the IC50 was > 50 µM (inactive).

Regarding `Cc1cccc(NC(=O)CSc2nnc(-c3n[nH]c4c3CCC4)n2N)c1`, the IC50 was 35.1 µM.

Consider `COc1ccccc1NC(=O)c1cc2c(C)nn(Cc3ccccc3)c2s1`, for which the IC50 is 29.9 µM.

As for `NS(=O)(=O)c1cccc(NC(=O)CN2CCCc3ccccc32)c1`, the IC50 is > 50 µM (inactive).

In the case of `O=C(COc1ccccc1-c1nnc(-c2ccccc2)o1)Nc1ccc(F)cc1F`, the IC50 was 1.87 µM.

In the case of `NC(=O)Cn1c(=O)n(Cc2ccc(C(=O)NC3CCCC3)cc2)c(=O)c2ccccc21`, the IC50 is > 50 µM (inactive).

On to `CC1=C[C@H]2N(c3ccc(C)cc31)[C@H](C(=O)c1cccs1)[C@@H](C(=O)c1ccc(F)cc1)[C@]21C(=O)Nc2ccccc21`, for which the IC50 is > 50 µM (inactive).

Consider `Cc1ccc(C)c(S(=O)(=O)N2CCN(c3ccc4nnc(-c5ccco5)n4n3)CC2)c1`, for which the IC50 is 22.6 µM.

In the case of `Cc1noc(NS(=O)(=O)c2ccc(NC(=O)CSc3ccc4ccccc4c3)cc2)c1C`, the IC50 is > 50 µM (inactive).

With `O=C(Nc1oc2ccccc2c(=O)c1-c1ccc2c(c1)OCO2)C1CCCCC1`, the IC50 was 30.1 µM.

For `CC1=C(c2ccc(F)cc2)S(=O)(=O)NC1=NCC(=O)Nc1ccc(F)cc1F`, the IC50 is 25.9 µM.

As for `COc1ccc2nc(Nc3nc(-c4cnc(N5CCOCC5)nc4C)cc(=O)[nH]3)nc(C)c2c1`, the IC50 is > 50 µM (inactive).

Regarding `COc1ccc2c(c1)CCc1c-2n[nH]c1C(=O)Nc1cc(C)on1`, the IC50 is 4.67 µM.

On to `CN[C@H]1CC2(CCN(C(=O)CCCn3cccn3)CC2)OC[C@]1(C)O`, for which the IC50 is > 50 µM (inactive).

For the molecule `FC(F)(F)c1ccccc1CCN1CCc2nc3ccc(Cl)cc3cc2C1`, the IC50 was > 50 µM (inactive).
